This note sets out measurements from patent US12649790B2, “Proteins that bind SP17 including fully-human anti-SP17 antibodies” (Medicovestor, Inc., priority 2023, dated 2026).

Entries after “also recorded” stand apart in the source; their conditions may differ. *1 amine or outer side, *2 acyl side, *3 side chain or, on linkers, in order; H or OH if unused. Where a SMILES comes first, the peptide text is derived from it. [ ]: non-standard residue; d: D form. The star is where a group is joined. Exatecan = CC[C@@]1(O)C(=O)OCc2c1cc1n(c2=O)Cc2c-1nc1cc(F)c(C)c3c1c2[C@@H](N*)CC3; Hexanoyl(6-maleimido) = O=C1C=CC(=O)N1CCCCCC(=O)*; NHCH2OCH2CO = O=C(COCN[*:1])[*:2]

In data set [1] the test system is SK-OV-3 cells. Briefly: Cytotoxicity assay (luminescence) against SK-OV-3 cells. Conditions: 5 or 6 days. As for the experimental part: SK-OV-3 cells were seeded at 1000, 2000, or 3000 cells per well and incubated overnight in advance of a cytotoxicity assay. […] The SK-OV-3 cells were treated with various concentrations of the SP17-AB2 antibody, the SP17-AB2-DXD immunoconjugate, a control human IgG4 antibody (hIgG4), or deruxtecan alone (DXD). The cells were incubated for 5 or 6 additional days, and cytotoxicity was then measured using a luminescence assay and EnVision™ plate reader (PerkinElmer, Massachusetts, United States).

Data set [2] has as its system ID8 cells. Briefly: Cytotoxicity assay against ID8 cells. Conditions: 3 days. The format is cell-based, mouse. The method, then: […] The cells were then treated with various concentrations of either the SP17-AB2 antibody, the SP17-AB2-DXD immunoconjugate, hIgG4, or deruxtecan alone. The cells were incubated for 3 additional days, and then cytotoxicity was measured.

Data set [3] deals with T1, recombinant 6His-Sp17 protein (Homo sapiens, UniProt Q15506).
T1 sequence (Q15506 1-151): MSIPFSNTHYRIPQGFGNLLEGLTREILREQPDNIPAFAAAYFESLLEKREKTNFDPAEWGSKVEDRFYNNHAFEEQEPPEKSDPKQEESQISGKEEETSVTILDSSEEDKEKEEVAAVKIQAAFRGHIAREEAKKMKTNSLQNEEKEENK
As to the kind of experiment: Surface plasmon resonance (Biacore T200) of chAB2 binding to recombinant 6His-Sp17. The conditions noted are these: SPR. An excerpt: The lines correspond, from highest to lowest, to fitted cycles for 300 nanomolar, 100 nanomolar, 50 nanomolar, 25 nanomolar, 12.5 nanomolar, and 6.25 nanomolar concentrations of 6His-Sp17.
(§1) The nucleotide sequences encoding the VH and VL regions of Example 1 were cloned into a mouse IgG2a heavy chain gene and a mouse kappa light chain gene, respectively, and expressed in CHO—S cells to produce a mouse-human chimeric antibody, which was named chAB2. Successful generation of the antibody was confirmed by SDS-PAGE and western blotting using anti-mouse heavy and light chain antibodies and recombinant Sp17 protein (FIGS. 2 & 3).
Background: SPR reads the build-up and loss of mass on a sensor chip optically.

Data set [4] concerns normal tissue microarray of 33 normal tissues. As to the kind of experiment: Immunohistochemistry on a normal tissue microarray (specificity). Conditions: 2-3 human donors per tissue. The method, then: The specificity of the chAB2 antibody for Sp17 was determined with immunohistochemistry on a normal tissue microarray, which consisted of 33 normal tissues obtained from 2-3 human donors per tissue. The normal tissues included brain, eye, adrenal gland, hypophyseal, thyroid, parathyroid, tonsil, thymus, spleen, heart, lung, larynx, esophagus, stomach, small intestine, colon, liver, pancreas, salivary gland, kidney, bone, skeletal, skin, peripheral nerve, mesothelial, breast, ovary, endometrium, cervix, testis, and prostate.

Data set [5] concerns the target T2, mouse surface Sp17 protein expressed on the mouse ovarian cancer cell line ID8 (Mus musculus, UniProt Q62252).
T2 construct: endogenous in cells; host or cells: ID8 mouse ovarian cancer cell line
T2 sequence (Q62252 1-149): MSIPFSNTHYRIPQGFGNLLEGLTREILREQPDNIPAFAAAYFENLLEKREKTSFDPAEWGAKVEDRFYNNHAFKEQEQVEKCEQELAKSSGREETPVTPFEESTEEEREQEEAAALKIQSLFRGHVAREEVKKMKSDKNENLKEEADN
As to the kind of experiment: Flow cytometry of ID8 cells labeled with chAB2 and anti-mouse FITC antibody. The format is cell-based. The conditions noted are these: relative to anti-mouse FITC antibody alone. As for the experimental part:
FIG. 4 consists of three panels. The left panel is a graph that depicts flow cytometry results for ID8 cells incubated with an anti-mouse fluorescein isothiocyanate (FITC) antibody, but without a primary antibody. The middle panel is a graph that depicts flow cytometry results for ID8 cells labeled with the anti-Sp17 antibody chAB2 and the anti-mouse FITC antibody.
as §1

Data set [6] addresses T3, Sp17 protein (Homo sapiens, UniProt Q15506).
T3 sequence (Q15506 1-151): T1 sequence (Q15506 1-151)
Briefly: Western blot detection of Sp17 protein. The format is binding. The conditions noted are these: SDS-PAGE of Sp17 protein.
From the text: as §1
The VH and VL nucleotide sequences of Example 1 were cloned into a human IgG4 heavy chain gene and a human kappa light chain gene, respectively. A Ser228Pro mutation was introduced in the heavy chain to reduce non-specific Fc receptor gamma binding. The resultant antibody was named SP17-AB2. Successful cloning was confirmed by sequence analysis. The amino acid sequences of the heavy chain and light chain are shown in Table 4, and the Ser228Pro mutation is underlined in SEQ ID NO: 11.
(In western blotting, separated proteins are transferred to a membrane and probed.)

[7] abbreviates: SK-OV-3 cells at 1000 cells/well.
Setting [8] is: SK-OV-3 cells at 2000 cells/well.
The mark [9] stands for this setting: SK-OV-3 cells at 3000 cells/well.

Usually IC50 stands for the concentration at which inhibition is half-maximal. High values mean a need for much substance, low ones inhibition by little substance. Usually Kd stands for the concentration at which binding is half-saturated.

For the molecule `CC[C@@]1(O)C(=O)OCc2c1cc1n(c2=O)Cc2c-1nc1cc(F)c(C)c3c1c2[C@@H](NC(=O)COCNC(=O)CNC(=O)[C@H](Cc1ccccc1)NC(=O)CNC(=O)CNC(=O)CCCCCN1C(=O)C=CC1=O)CC3` [deruxtecan] ({Hexanoyl(6-maleimido)}-GGFG[NHCH2OCH2CO]-Exatecan), the 50% inhibitory concentration (IC50) amounted to 0.75 nM in data set [1] (setting [7]), 1.1 nM in data set [1] (setting [8]) and 1.2 nM in data set [1] (setting [9]). Besides, the “Max Cytotoxicity” value in data set [1] (setting [7]) is 98%; in data set [1] (setting [8]), 97%; in data set [1] (setting [9]) it was 97%; in data set [2] (ID8 cells at 250 cells/well), 94%; in data set [2] (ID8 cells at 500 cells/well), 93%.

B1: chAB2: mouse-human chimeric anti-Sp17 monoclonal antibody: human VH/VL (SEQ ID NO: 3, 4) in mouse IgG2a heavy chain and mouse kappa light chain (antibody, V domains shown)
VH: QVQLQQSGAEVKKPGSSVKVSCKASGGTFSSYAISWVRQAPGQGLEWMGRIIPILGIANYAQKFQGRVTITADKSTSTAYMELSSLRSEDTAVYYCARPSEEVVAAYGAFDIWGQGTTVTVSS
VL: EIVLTQSPLSLPVRPGEPASISCRASQSLLRSDGFNYLDWYLQKPGQSPQLLVYLGSNRASGVPDRFSGSGSGTDFTLKISRVEAEDVGVYYCMQAVQTPYIFGQGTKLEIK
modifications: mouse IgG2a and kappa constant regions
Regarding B1, in data set [3] (6.25-300 nanomolar 6His-Sp17), the “association rate constant (ka) for chAB2 to Sp17” value is 62,600 per mole per second. Further, the Kd in data set [3] (Biacore T200, read-out: dissociation constant (KD)) was approximately 2 nM. Besides, the “binding to normal human tissues / cross-reactivity by immunohistochemistry” value in data set [4] was “bound to testis and did not bind to normal tissues; also recorded: lack detectable cross-reactivity”. In addition, the “reactivity to surface Sp17 on ID8 cells by flow cytometry (mean fluorescent intensity)” value in data set [5] was “reactive to mouse surface Sp17 protein; also recorded: increased mean fluorescent intensity”. In addition, the “binding/detection of Sp17 protein by western blot” value in data set [6] is “Sp17 protein was detected”.
